Experimental data reported in patent publication US7767789B2, “Truncated proteins as cancer markers” (University Hopitals of Cleveland, priority 2005, dated 2010).
Entries after “also recorded” stand apart in the source; their conditions may differ.

What was measured:
Assay type in all cases: cell-based, human
CaSki cells [1] = assay: DNA solubilization assay (apoptosis)
Protocol: Twenty-four hours before the end of the experiment, cells were labeled with [^3H]thymidine (specific activity, 93 Ci/mmol; 5 μCi/1×10^6 cells) for 16 h. The medium was removed, and cells were washed three times with fresh medium lacking [^3H]thymidine and were incubated in the same medium for an additional 6 h. At the end of incubation, the supernatant was stored, and cells were lysed in 0.5 ml lysis buffer (10 mM Tris-HCl, pH 7.5; plus 1 mM EDTA-0.2% Triton X-100) for 1 h at 4° C. The intact chromatin was separated from the fragmented DNA by 5 min centrifugation at 4° C. in Eppendorf microcentrifuge at 12,000×g. The supernatant (lysate) was stored, while the pellet was resuspended in 0.5 ml of 1% sodium dodecyl sulfate (SDS). The radioactivity contained in the supernatants, lysates; and pellets was counted in a scintillation counter, and DNA fragmentation was calculated as: [% Solubilized DNA]=([cpm supernatant+cpm lysates]/[cpm supernatant+cpm lysate+cpm pellet])×100.

CaSki cells [2] = assay: Number of CaSki cells in culture; conditions: serum-free; 0.2 nM EGF, 2 nM epinephrine, or both, 24 h
Protocol: Near-confluent cultures of CaSki cells on filters were shifted for 14 hours to serum-free medium supplemented with 1% BSA and were treated in the same medium with 0.2 nM EGF, 2 nM epinephrine, or both for an additional 24 h. At the completion of treatments, cells were harvested off the filters and counted.

CaSki cells [3] = assay: DNA synthesis by [3H]thymidine incorporation; conditions: 0.2 nM EGF, 2 nM epinephrine
Protocol: The experiments used CaSki cells, a line of transformed cervical epithelial cells that were obtained from the ATCC (Manassas, Va.) and were previously characterized as stably expressing phenotypic characteristics of human cervical epithelial cells. Cells were grown and subcultured in RPMI-1640 supplemented with 8% fetal calf serum, 0.2% NaHCO3, nonessential amino acids (0.1 mM), L-glutamine (2 mM), penicillin (100 U/ml), streptomycin (100 μg/ml), and gentamycin ([…]) at 37° C. in a […] humidified incubator. Cultures were routinely tested for mycoplasma. Preliminary experiments were conducted on cells plated on culture plates, and definitive experiments were repeated on cells plated on filters. Filters were either Anocell (Anocell-10, Oxon, UK, obtained through Sigma Chemicals, St. Louis, Mo.), Transwell (Costar Corporation, Cambridge, Mass.), or Millicell-CM (Millipore, Bedford, Mass.). Filters were coated on their upper (luminal) surface with 3-5 μg/cm collagen type IV and incubated at 37° C. overnight. […] DNA synthesis DNA synthesis was measured by [^3H]thymidine incorporation. […] The radioactivity [dpm/mg protein, determined by Bio-Rad (Hercules, Calif.) Protein Assay solution] of triplicated samples was determined by scintillation counting (LS1801 scintillation counter; Beckman, Fullerton, Calif.).

EGF: Human recombinant EGF, epidermal growth factor
effect on TNFα-induced increase in DNA solubilization (CaSki cells [1]; pretreatment 24 h: 1 μM zinterol or 0.2 nM EGF): no significant effect | effect on BzATP-induced apoptosis (DNA solubilization) (CaSki cells [1]; pretreatment: EGF 0.2 nM, zinterol/terbutaline 1 μM 24 h, forskolin 10 μM 14 h with IBMX, isoproterenol 10 μM, phenylephrine 100 μM): little effect; also recorded: no significant effect | number of cells in culture (CaSki cells [2]): increased the number of cells in culture | [3H]thymidine incorporation (CaSki cells [3]): increased [^3H]thymidine incorporation
